Legend:
[1] = molecular target: T1, FLK-1 receptor (Mus musculus, UniProt P35918); test: FLK-1 ELISA (kinase activity of the FLK-1 receptor in FLK-1/NIH3T3 cells, VEGF stimulated); type: cell-based
T1 construct: expressed in transfected cells; host or cells: NIH3T3 C7#3
Method in brief: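 FLK-1-expressing NIH3T3 C7#3 cells, starved overnight in 0.1% FBS medium, were treated with compounds at a 1:200 final dilution (0.5% DMSO) for 2 h at 37 °C, with VEGF stimulation. FLK-1 kinase activity was read by ELISA on anti-rabbit IgG plates using affinity-purified anti-FLK-1 antiserum.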

[2] = molecular target: PDGF-R (Homo sapiens, UniProt P09619); test: PDGF-R ELISA; type: cell-based
From the text: A PDGF-R ELISA is described in International Patent Publication No. WO 96/40116, published December 19, 1996 by Tang et al.

Sequence of PDGF-R (P09619 33-1106, species assumed): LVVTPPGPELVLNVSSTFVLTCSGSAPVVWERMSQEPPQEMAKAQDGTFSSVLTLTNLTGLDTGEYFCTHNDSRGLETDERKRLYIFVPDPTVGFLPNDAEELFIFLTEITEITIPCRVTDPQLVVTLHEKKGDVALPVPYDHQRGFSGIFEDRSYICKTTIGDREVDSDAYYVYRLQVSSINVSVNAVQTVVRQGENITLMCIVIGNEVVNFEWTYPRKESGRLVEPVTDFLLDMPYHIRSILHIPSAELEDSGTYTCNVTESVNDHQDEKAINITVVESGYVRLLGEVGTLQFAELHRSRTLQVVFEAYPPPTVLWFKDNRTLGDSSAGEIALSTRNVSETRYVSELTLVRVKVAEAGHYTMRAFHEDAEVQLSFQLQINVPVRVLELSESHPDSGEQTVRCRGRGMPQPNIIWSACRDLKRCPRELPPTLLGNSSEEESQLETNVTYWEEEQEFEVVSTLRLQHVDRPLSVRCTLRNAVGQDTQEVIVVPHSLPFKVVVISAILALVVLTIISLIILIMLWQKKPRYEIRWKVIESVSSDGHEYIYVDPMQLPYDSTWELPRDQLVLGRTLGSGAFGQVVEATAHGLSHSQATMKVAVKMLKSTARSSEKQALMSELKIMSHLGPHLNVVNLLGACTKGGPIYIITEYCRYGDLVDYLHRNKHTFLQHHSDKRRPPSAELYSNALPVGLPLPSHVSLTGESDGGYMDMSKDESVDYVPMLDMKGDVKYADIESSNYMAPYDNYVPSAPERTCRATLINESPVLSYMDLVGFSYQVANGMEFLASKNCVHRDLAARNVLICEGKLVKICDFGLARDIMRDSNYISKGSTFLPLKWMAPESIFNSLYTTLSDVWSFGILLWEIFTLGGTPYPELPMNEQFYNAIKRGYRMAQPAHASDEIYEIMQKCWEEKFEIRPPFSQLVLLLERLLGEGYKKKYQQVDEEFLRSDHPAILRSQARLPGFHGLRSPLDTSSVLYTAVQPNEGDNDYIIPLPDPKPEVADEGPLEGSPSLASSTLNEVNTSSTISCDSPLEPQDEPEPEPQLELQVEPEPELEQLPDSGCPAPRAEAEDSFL
T1 sequence (P35918 20-1345): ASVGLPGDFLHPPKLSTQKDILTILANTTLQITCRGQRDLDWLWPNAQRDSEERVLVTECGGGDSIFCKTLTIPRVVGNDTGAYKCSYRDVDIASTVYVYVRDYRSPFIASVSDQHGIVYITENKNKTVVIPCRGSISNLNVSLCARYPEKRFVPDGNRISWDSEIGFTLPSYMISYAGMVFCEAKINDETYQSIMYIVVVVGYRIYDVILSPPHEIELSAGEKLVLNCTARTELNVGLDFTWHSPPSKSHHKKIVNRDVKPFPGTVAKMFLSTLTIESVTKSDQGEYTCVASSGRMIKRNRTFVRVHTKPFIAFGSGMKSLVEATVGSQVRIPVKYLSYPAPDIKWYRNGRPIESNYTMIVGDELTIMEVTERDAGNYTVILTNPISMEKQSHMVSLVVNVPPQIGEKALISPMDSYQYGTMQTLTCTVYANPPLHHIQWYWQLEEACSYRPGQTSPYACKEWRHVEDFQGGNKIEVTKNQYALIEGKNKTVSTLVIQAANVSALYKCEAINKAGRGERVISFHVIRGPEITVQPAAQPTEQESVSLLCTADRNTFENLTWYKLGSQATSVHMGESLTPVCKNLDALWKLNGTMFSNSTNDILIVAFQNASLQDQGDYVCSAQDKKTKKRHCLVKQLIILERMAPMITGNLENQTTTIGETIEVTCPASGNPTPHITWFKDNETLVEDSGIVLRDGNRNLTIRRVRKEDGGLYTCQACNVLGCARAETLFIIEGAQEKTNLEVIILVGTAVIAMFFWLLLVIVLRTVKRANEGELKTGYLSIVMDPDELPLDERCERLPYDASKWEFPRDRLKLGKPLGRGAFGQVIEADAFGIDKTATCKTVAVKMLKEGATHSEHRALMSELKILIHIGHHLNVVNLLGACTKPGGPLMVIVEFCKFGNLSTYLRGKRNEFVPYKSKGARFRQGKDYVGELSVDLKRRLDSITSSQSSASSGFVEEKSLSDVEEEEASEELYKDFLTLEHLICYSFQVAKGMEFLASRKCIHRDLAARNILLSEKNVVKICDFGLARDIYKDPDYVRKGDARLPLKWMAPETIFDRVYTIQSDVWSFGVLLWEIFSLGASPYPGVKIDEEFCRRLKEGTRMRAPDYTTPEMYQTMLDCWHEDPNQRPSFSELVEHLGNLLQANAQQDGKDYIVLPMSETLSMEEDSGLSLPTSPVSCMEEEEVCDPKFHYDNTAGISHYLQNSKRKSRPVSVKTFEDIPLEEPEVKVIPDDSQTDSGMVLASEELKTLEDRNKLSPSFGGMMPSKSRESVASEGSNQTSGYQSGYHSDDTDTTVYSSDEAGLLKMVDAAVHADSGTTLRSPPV

SMILES | Fik Kinase %Inhibition [1] [%] | PDGF Kinase %Inhibition [2] [%]
COc1ccc(C=C2C(=O)Nc3c(Br)cc(Br)cc32)cc1 [10726/A11] | 0.5 | 23.3
Cc1c(Br)ccc2c1C(=Cc1ccc(N3CCOCC3)cc1)C(=O)N2 [10725/C08] | -8.7 | 101.7
Cc1ccc(C=C2C(=O)Nc3ccc(S(=O)(=O)Nc4ccc(C(F)(F)F)cc4)cc32)o1 [10725/E04] | -38.8 | 3.1
Cc1cn(C)cc1C=C1C(=O)Nc2ccc(I)cc21 [10726/B06] | 11.3 | 34.1
COc1ccc(Br)c(C=C2C(=O)Nc3ccc(Br)c(C)c32)c1O [10725/C03] | 2.0 | 19.3
O=C1Nc2ccc(CCCl)cc2C1=Cc1c[nH]cn1 [10725/G11] | -28.0 | 22.2
CNS(=O)(=O)c1ccc2c(c1)C(=Cc1c(Br)ccc(OC)c1O)C(=O)N2 [10725/D03] | -11.3 | 5.4
Cc1cc(C=C2C(=O)Nc3ccc(CCCl)cc32)[nH]n1 [10725/G05] | -18.3 | 7.4
COc1ccc(Br)c(C=C2C(=O)Nc3ccc(S(=O)(=O)Nc4ccc(C(F)(F)F)cc4)cc32)c1O [10725/E03] | -0.8 | 10.7
O=C1Nc2ccc(S(=O)(=O)Nc3ccc(C(F)(F)F)cc3)cc2C1=Cc1c[nH]cn1 [10725/E11] | 18.9 | 20.8
CCOC(=O)c1[nH]c(C=C2C(=O)Nc3ccc(I)cc32)c(C(=O)OC)c1C [10726/B03] | 11.1 | 16.4
Cc1ccc(C=C2C(=O)Nc3ccc(Br)c(C)c32)o1 [10725/C04] | -27.3 | 25.1
COc1cc(C)cc(O)c1C=C1C(=O)Nc2ccc(S(=O)(=O)Nc3ccc(C(F)(F)F)cc3)cc21 [10725/E06] | -1.8 | 39.0
O=C1Nc2ccc(S(=O)(=O)N3CCOCC3)cc2C1=Cc1c(Br)cnn1-c1ccc(Cl)cc1 [10725/F10] | 4.8 | 17.9
Cc1cc(C=C2C(=O)Nc3ccc(I)cc32)cc(C(C)(C)C)c1O [10726/B04] | 16.8 | 39.1
O=C1Nc2ccc(CCCl)cc2C1=Cc1ccc(N2CCOCC2)cc1 [10725/G08] | -14.8 | 8.3
CCOC(=O)c1[nH]c(C=C2C(=O)Nc3c(Br)cc(Br)cc32)c(C(=O)OC)c1C [10726/A03] | -2.6 | 4.3
COc1cc(C)cc(O)c1C=C1C(=O)Nc2ccc(CCCl)cc21 [10725/G06] | 21.7 | 27.5

Source: EP1247803A2, “Indolinone compounds suitable for modulation of protein kinases” (Sugen, Inc., priority 1996, dated 1998)
